Values quoted from earlier work in patent US9044449B2, “X-ray contrast media compositions and methods of using the same to treat, reduce or delay the onset of CNS inflammation and inflammation associated conditions” (3E THERAPEUTICS CORPORATION, priority 2011, dated 2015).
Residues, ends and D or L forms follow the SMILES beside them.

How the values were obtained:
[1] = biological target: angiotensin converting enzyme (ACE) (Homo sapiens, UniProt P12821); details: in vitro; FIG. 2 reproduced from Lasser et al. 1990
angiotensin converting enzyme (ACE), sequence (P12821 30-1306, species assumed): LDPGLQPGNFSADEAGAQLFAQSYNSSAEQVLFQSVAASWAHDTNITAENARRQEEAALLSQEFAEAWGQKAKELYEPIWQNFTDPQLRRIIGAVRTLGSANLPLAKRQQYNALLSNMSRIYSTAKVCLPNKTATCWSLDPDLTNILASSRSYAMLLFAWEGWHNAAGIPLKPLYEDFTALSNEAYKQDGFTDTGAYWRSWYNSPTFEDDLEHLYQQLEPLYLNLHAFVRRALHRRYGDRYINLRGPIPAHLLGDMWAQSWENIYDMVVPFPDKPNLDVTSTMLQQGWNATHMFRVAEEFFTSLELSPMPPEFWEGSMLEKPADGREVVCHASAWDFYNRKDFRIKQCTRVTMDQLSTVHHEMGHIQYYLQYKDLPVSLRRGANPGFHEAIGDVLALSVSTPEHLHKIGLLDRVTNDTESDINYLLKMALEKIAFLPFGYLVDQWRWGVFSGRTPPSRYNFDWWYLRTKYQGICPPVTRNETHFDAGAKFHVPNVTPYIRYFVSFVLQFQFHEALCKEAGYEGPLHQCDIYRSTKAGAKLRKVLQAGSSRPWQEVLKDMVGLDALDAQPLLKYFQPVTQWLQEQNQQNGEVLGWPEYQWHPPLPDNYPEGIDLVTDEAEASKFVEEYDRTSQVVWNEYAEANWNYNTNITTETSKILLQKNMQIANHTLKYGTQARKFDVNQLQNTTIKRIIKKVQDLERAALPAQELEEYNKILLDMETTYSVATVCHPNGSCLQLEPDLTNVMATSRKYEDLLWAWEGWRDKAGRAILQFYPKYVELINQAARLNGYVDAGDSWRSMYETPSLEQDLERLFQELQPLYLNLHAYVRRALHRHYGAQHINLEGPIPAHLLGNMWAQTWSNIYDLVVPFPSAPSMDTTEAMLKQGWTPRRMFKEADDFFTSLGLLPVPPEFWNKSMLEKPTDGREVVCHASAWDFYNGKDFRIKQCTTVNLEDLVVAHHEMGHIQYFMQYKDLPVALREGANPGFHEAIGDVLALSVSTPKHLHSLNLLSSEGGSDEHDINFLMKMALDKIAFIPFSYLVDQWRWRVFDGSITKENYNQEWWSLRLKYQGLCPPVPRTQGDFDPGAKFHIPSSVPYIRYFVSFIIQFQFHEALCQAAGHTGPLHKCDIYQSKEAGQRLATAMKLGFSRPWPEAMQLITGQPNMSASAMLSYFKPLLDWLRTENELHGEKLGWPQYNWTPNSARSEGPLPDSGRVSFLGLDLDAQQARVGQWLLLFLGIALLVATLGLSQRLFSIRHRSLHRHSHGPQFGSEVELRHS

[2] = tested on: TNF-alpha; details: in vitro
[3] = tested on: allergen induced nasal obstruction; details: used as a nasal spray, in vivo
[4] = tested on: mast cell degranulation; details: in vitro; immunological and non-immunological stimuli

C[C@H](O)C(=O)Nc1c(I)c(C(=O)NC(CO)CO)c(I)c(C(=O)NC(CO)CO)c1I [purified iopamidol, iopamidol]
inhibition of ACE compared with commercial iopamidol (contains chelator) [1]: diminishes the inhibition ACE significantly

CCCc1c2oc(C(=O)[O-])cc(=O)c2cc2c(=O)cc(C(=O)[O-])n(CC)c12.[Na+].[Na+] [nedocrimal sodium]
inhibition of TNF-alpha [2]: inhibited TNF-alpha in vitro

CC(=O)N[C@@H](CC(=O)[O-])C(=O)N[C@@H](CCC(=O)[O-])C(=O)O.[Mg+2] [magnesium salt of n-acetyl aspartyl glutamic acid] (Ac-Asp-Glu-OH)
effect on allergen induced nasal obstruction [3]: reduce allergen induced nasal obstruction | inhibition of mast cell degranulation [4]: inhibit mast cell degranulation

O=C(O)c1cc(=O)c2c(OCC(O)COc3cccc4oc(C(=O)O)cc(=O)c34)cccc2o1 [Sodium cromoglycate]
inhibition of TNF-alpha [2]: inhibited TNF-alpha in vitro
